ChEMBL document CHEMBL1133187, “Novel antiarthritic agents with 1,2-isothiazolidine-1,1-dioxide (gamma-sultam) skeleton: cytokine suppressive dual inhibitors of cyclooxygenase-2 and 5-lipoxygenase” (J Med Chem, 2000)

Legend:
Cyclooxygenase = target: T1, Cyclooxygenase (Rattus norvegicus, UniProt P35355+Q63921)
T1 sequence (P35355 whole entry): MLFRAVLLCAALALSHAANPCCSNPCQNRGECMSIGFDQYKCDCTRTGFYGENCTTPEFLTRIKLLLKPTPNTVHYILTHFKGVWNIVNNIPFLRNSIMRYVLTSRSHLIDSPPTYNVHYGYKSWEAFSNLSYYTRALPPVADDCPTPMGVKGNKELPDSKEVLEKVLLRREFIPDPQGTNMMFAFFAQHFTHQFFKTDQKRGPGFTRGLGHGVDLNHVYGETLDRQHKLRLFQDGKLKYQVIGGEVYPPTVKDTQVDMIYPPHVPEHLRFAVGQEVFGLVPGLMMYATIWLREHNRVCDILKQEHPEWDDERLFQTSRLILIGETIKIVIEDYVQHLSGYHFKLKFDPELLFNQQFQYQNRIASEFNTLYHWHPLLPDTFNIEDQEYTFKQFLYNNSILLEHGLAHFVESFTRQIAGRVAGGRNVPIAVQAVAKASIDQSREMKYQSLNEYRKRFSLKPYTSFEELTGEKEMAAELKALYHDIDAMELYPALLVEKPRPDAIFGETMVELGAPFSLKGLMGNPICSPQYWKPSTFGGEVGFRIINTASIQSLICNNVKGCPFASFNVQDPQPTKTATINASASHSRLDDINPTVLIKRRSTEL
T1 sequence (Q63921 whole entry): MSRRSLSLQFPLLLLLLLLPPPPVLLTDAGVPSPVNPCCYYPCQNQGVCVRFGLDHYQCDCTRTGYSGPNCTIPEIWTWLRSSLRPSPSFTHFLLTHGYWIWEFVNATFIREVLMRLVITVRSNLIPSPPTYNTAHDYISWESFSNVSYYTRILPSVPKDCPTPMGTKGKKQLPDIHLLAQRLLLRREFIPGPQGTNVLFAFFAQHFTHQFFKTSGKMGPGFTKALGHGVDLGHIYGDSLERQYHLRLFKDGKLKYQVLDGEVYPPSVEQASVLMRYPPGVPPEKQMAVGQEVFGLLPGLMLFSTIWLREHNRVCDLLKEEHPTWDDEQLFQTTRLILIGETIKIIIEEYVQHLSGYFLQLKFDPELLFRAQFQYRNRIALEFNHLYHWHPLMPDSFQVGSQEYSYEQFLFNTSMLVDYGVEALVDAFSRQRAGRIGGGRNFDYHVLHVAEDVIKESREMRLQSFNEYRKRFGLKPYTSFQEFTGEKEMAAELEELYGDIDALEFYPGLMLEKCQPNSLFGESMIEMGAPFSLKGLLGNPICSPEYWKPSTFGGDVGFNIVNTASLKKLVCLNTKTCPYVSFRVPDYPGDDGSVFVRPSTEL
Description: In vitro inhibitory effect on production of prostaglandin E2 (PGE2) in rat synovial cells.

Rattus norvegicus [1] = species on record: Rattus norvegicus; test: In vitro inhibitory effect on production of Prostaglandin E2 (PGE2) in rat synovial cells; format: functional
THP-1 [2] = test: In vitro inhibitory effect on production of lipopolysaccharide (LPS)-induced IL1-beta in human THP-1 cells; format: functional, cell-based
Rattus norvegicus [3] = species on record: Rattus norvegicus; test: In vitro inhibitory effect on production of calcium ionophore (A23187)-induced Leukotriene B4 (LTB4) in rat peritoneal cells; format: functional, cell-based
THP-1 [4] = test: In vitro effect on production of lipopolysaccharide (LPS) -induced IL1-beta in human THP-1 cells; format: functional, cell-based
Rattus norvegicus [5] = test: Percent inhibition of adjuvant-induced arthritis at 10 mg/kg po; format: functional
Rattus norvegicus [6] = species on record: Rattus norvegicus; test: In vitro effect on production of calcium ionophore (A23187) -induced Leukotriene B4 (LTB4) in rat peritoneal cells; format: functional, cell-based
Rattus norvegicus [7] = test: Percent inhibition of carrageenan-induced foot-pad edema at 30 mg/kg po; format: functional
THP-1 [8] = test: In vitro inhibitory effect on production of, lipopolysaccharide (LPS) -induced IL1-beta in human THP-1 cells; format: functional, cell-based
Rattus norvegicus [9] = species on record: Rattus norvegicus; test: In vitro inhibitory effect on production of, Prostaglandin E2 (PGE2) in rat synovial cells; format: functional
Rattus norvegicus [10] = species on record: Rattus norvegicus; test: In vitro inhibitory effect on production of, calcium ionophore (A23187) -induced Leukotriene B4 (LTB4) in rat peritoneal cells; format: functional, cell-based
Rattus norvegicus [11] = test: Dose required for 30% inhibition of carrageenan-induced edema; format: functional
Rattus norvegicus [12] = species on record: Rattus norvegicus
Description: Lengths of bleeding ulcer of drug-administered group

Rattus norvegicus [13] = species on record: Rattus norvegicus; test: Inhibitory effect for increase in plasma prostaglandin E2 (PGE2) level after arachidonic acid (AA) injection into COX-2 lipopolysaccharide-treated rats; format: functional, organism-based
Rattus norvegicus [14] = species on record: Rattus norvegicus; test: Inhibitory effect for increase in plasma prostaglandin E2 (PGE2) level after arachidonic acid (AA) injection into COX-1 non-lipopolysaccharide-treated rats; format: functional, organism-based
Rattus norvegicus [15] = species on record: Rattus norvegicus; test: Dose required for 30% inhibition of adjuvant-induced arthritis; format: functional
Rattus norvegicus [16] = species on record: Rattus norvegicus; test: Dose required for Ulcerogenic effect; format: functional
[17] = (§1) Inhibitory effect on production of cyclooxygenase-2 (COX-2) prostaglandin E2 (PGE2) in human IL1-beta stimulated synovial cells; format: functional
Homo sapiens [18] = species on record: Homo sapiens; test: Inhibitory effect on production of (COX-1) thromboxane B2 (TXB2) in human platelet cells; format: functional, cell-based
Rattus norvegicus [19] = test: Percent inhibition of adjuvant-induced arthritis at 10 mg/kg poP<0.01; format: functional; settings: read-out: Inhibition
Homo sapiens [20] = species on record: Homo sapiens; test: Inhibitory effect on production of cyclooxygenase-1 (COX-1) thromboxane B2 (TXB2) in human platelet cells
[21] = as §1

Row | SMILES | IC50 (Cyclooxygenase) | IC50 (THP-1 [4]) | inhibition in vivo at 10 mg/kg (Rattus norvegicus [5]) | IC50 (Rattus norvegicus [6]) | inhibition in vivo at 30 mg/kg (Rattus norvegicus [7]) | further results
1 | CC(C)CN1CC/C(=C\c2cc(C(C)(C)C)c(O)c(C(C)(C)C)c2)S1(=O)=O | 0.41 µM | – | – | – | – | –
2 | CC(C)(C)c1cc(/C=C2\CCN(CC(=O)O)S2(=O)=O)cc(C(C)(C)C)c1O | 3.4 µM | – | – | – | – | –
3 | CCN1CC/C(=C\c2cc(C(C)C)c(O)c(C(C)C)c2)S1(=O)=O | – | – | – | – | – | IC50 (Rattus norvegicus [1]): > 1 µM; IC50 (THP-1 [2]): > 100 µM; IC50 (Rattus norvegicus [3]): > 100 µM
4 | CN(C)CCN1CC/C(=C\c2cc(C(C)(C)C)c(O)c(C(C)(C)C)c2)S1(=O)=O | 0.34 µM | – | – | – | – | –
5 | CCN1CC/C(=C/c2cc(C(C)(C)C)c(O)c(C(C)(C)C)c2)S1(=O)=O | 0.0021 µM | 10 µM | 11.4% | 2.5 µM | 7.3% | –
6 | CCN1CC/C(=C\c2ccc(O)c(OC)c2)S1(=O)=O | – | – | – | – | – | IC50 (THP-1 [8]): > 100 µM; IC50 (Rattus norvegicus [9]): > 1 µM; IC50 (Rattus norvegicus [10]): > 100 µM
7 | CCN1CC/C(=C\c2cc(C(C)(C)C)c(O)c(C(C)(C)C)c2)S1(=O)=O | 0.0095 µM | 10 µM | 37.8% | 2.5 µM | 49.4% | ED30 (Rattus norvegicus [11]): 3.5 mg/kg; Ulcer index (Rattus norvegicus [12]): 1.6 mm; ED50 (Rattus norvegicus [13]): 3.19 mg/kg; ED50 (Rattus norvegicus [14]): > 30 mg/kg; ED30 (Rattus norvegicus [15]): 0.76 mg/kg; Dose (Rattus norvegicus [16]): 400 mg/kg; IC50 [17]: 0.011 µM; IC50 (Homo sapiens [18]): 27 µM
8 | CC(C)(C)c1cc(/C=C2\CCN(O)S2(=O)=O)cc(C(C)(C)C)c1O | 0.01 µM | 90 µM | 3.6% | 9.5 µM | 15.8% | –
9 | CC(C)(C)c1cc(/C=C2\CCN(C3CC3)S2(=O)=O)cc(C(C)(C)C)c1O | 0.0025 µM | 9 µM | 32.9% | 3.2 µM | 21.4% | ED30 (Rattus norvegicus [11]): 11.9 mg/kg; Ulcer index (Rattus norvegicus [12]): 0.7 mm; ED30 (Rattus norvegicus [15]): 1.7 mg/kg; Dose (Rattus norvegicus [16]): 400 mg/kg
10 | CC(=O)N1CC/C(=C\c2cc(C(C)(C)C)c(O)c(C(C)(C)C)c2)S1(=O)=O | < 0.001 µM | 28 µM | – | 4.9 µM | 21% | –
11 | CN1CC/C(=C\c2cc(C(C)(C)C)c(O)c(C(C)(C)C)c2)S1(=O)=O | 0.0091 µM | 28 µM | – | 2.8 µM | 61.4% | ED30 (Rattus norvegicus [11]): 5.4 mg/kg; Ulcer index (Rattus norvegicus [12]): 26.8 mm; ED30 (Rattus norvegicus [15]): 0.64 mg/kg; Dose (Rattus norvegicus [16]): 400 mg/kg; inhibition in vivo at 10 mg/kg (Rattus norvegicus [19]): 39.4%
12 | CON1CC/C(=C\c2cc(C(C)(C)C)c(O)c(C(C)(C)C)c2)S1(=O)=O | < 0.001 µM | > 100 µM | 35.2% | 3 µM | 26.5% | ED30 (Rattus norvegicus [11]): 34.7 mg/kg; ED30 (Rattus norvegicus [15]): 2.4 mg/kg
13 | CC(C)(C)c1cc(/C=C2\CCN(c3ccccn3)S2(=O)=O)cc(C(C)(C)C)c1O | 1 µM | – | – | – | – | –
14 | CC(C)(C)c1cc(/C=C2\CCNS2(=O)=O)cc(C(C)(C)C)c1O | 0.03 µM | > 100 µM | 8.8% | > 100 µM | 17.2% | –
15 | CCCN1CC/C(=C/c2cc(C(C)(C)C)c(O)c(C(C)(C)C)c2)S1(=O)=O | 0.012 µM | 23 µM | – | 0.8 µM | 11.2% | –
16 | CN1OCC/C(=C\c2cc(C(C)(C)C)c(O)c(C(C)(C)C)c2)S1(=O)=O | 0.2 µM | – | – | – | – | –
17 | Cc1ccc(-c2cc(C(F)(F)F)nn2-c2ccc(S(N)(=O)=O)cc2)cc1 [CELECOXIB] | – | – | – | – | – | IC50 (Homo sapiens [20]): 19 µM; IC50 [21]: 0.0079 µM
18 | CC(C)(C)c1cc(/C=C2/CCN(O)S2(=O)=O)cc(C(C)(C)C)c1O | 0.7 µM | – | – | – | – | –
